Values of other authors as cited in PubChem BioAssay AID1259409 (Chemical Carcinogenesis Research Information System (CCRIS), 2018).

Tested on: rodent chemically induced tumor inhibition, incidence and multiplicity
Assay: CCRIS tumor inhibitor studies
Details: Route [Inhibitor]: DERMAL, Species: MOUSE, Target Tissue: Type of Lesion: SKIN: PAPILLOMA

Structure (SMILES)	tumour outcome (control, treated, inhibition, significance) (Carcinogen: 7,12-DIMETHYLBENZ[A]ANTHRACENE, 57-97-6, Dose [Inhibitor]: 500 NMOL IN 0.2 ML ACETONE APPLIED ONCE TO DORSAL SKIN 15 MIN PRIOR TO CARCINOGEN DOSE (STUDY DURATION: 20 WK), Strain/Sex: SENCAR/FEMALE, Dose [Carcinogen]: 10 NMOL IN 0.2 ML ACETONE ONCE)	tumour outcome (control, treated, inhibition, significance) (Carcinogen: 7,12-DIMETHYLBENZ[A]ANTHRACENE, 57-97-6, Dose [Inhibitor]: 1000 NMOL IN 0.2 ML ACETONE APPLIED ONCE TO DORSAL SKIN 15 MIN PRIOR TO CARCINOGEN DOSE (STUDY DURATION: 20 WK), Strain/Sex: SENCAR/FEMALE, Dose [Carcinogen]: 10 NMOL IN 0.2 ML ACETONE ONCE)	tumour outcome (control, treated, inhibition, significance) (Carcinogen: 7,12-DIMETHYLBENZ[A]ANTHRACENE, 57-97-6, Dose [Inhibitor]: 2000 NMOL IN 0.2 ML ACETONE APPLIED ONCE TO DORSAL SKIN 15 MIN PRIOR TO CARCINOGEN DOSE (STUDY DURATION: 20 WK), Strain/Sex: SENCAR/FEMALE, Dose [Carcinogen]: 10 NMOL IN 0.2 ML ACETONE ONCE)	tumour outcome (control, treated, inhibition, significance) (Carcinogen: BENZO[A]PYRENE, 50-32-8, Dose [Inhibitor]: 100 NMOL IN 0.2 ML ACETONE APPLIED ONCE TO DORSAL SKIN 15 MIN PRIOR TO CARCINOGEN DOSE (STUDY DURATION: 20 WK), Strain/Sex: SENCAR/FEMALE, Dose [Carcinogen]: 200 NMOL IN 0.2 ML ACETONE ONCE)	tumour outcome (control, treated, inhibition, significance) (Carcinogen: BENZO[A]PYRENE, 50-32-8, Dose [Inhibitor]: 500 NMOL IN 0.2 ML ACETONE APPLIED ONCE TO DORSAL SKIN 15 MIN PRIOR TO CARCINOGEN DOSE (STUDY DURATION: 20 WK), Strain/Sex: SENCAR/FEMALE, Dose [Carcinogen]: 200 NMOL IN 0.2 ML ACETONE ONCE)	tumour outcome (control, treated, inhibition, significance) (Carcinogen: BENZO[A]PYRENE, 50-32-8, Dose [Inhibitor]: 1000 NMOL IN 0.2 ML ACETONE APPLIED ONCE TO DORSAL SKIN 15 MIN PRIOR TO CARCINOGEN DOSE (STUDY DURATION: 20 WK), Strain/Sex: SENCAR/FEMALE, Dose [Carcinogen]: 200 NMOL IN 0.2 ML ACETONE ONCE)	tumour outcome (control, treated, inhibition, significance) (Carcinogen: BENZO[A]PYRENE, 50-32-8, Dose [Inhibitor]: 2000 NMOL IN 0.2 ML ACETONE APPLIED ONCE TO DORSAL SKIN 15 MIN PRIOR TO CARCINOGEN DOSE (STUDY DURATION: 20 WK), Strain/Sex: SENCAR/FEMALE, Dose [Carcinogen]: 200 NMOL IN 0.2 ML ACETONE ONCE)	tumour outcome (control, treated, inhibition, significance) (Carcinogen: BENZO[A]PYRENE, 50-32-8, Dose [Inhibitor]: 4000 NMOL IN 0.2 ML ACETONE APPLIED ONCE TO DORSAL SKIN 15 MIN PRIOR TO CARCINOGEN DOSE (STUDY DURATION: 20 WK), Strain/Sex: SENCAR/FEMALE, Dose [Carcinogen]: 200 NMOL IN 0.2 ML ACETONE ONCE)	tumour outcome (control, treated, inhibition, significance) (Carcinogen: 7,12-DIMETHYLBENZ[A]ANTHRACENE, 57-97-6, Dose [Inhibitor]: 0, 0.4 UMOL 2/WK FOR 18 WK BEGINNING 10 D POST CARCINOGEN DOSE (STUDY DURATION: 20 WK), Strain/Sex: CD-1/FEMALE, Dose [Carcinogen]: 200 NMOL ONCE, Promoter: 12-O-TETRADECANOYLPHORBOL-13-ACETATE, 16561-29-8)	tumour outcome (control, treated, inhibition, significance) (Carcinogen: 7,12-DIMETHYLBENZ[A]ANTHRACENE, 57-97-6, Dose [Inhibitor]: 0, 10 UMOL 2/WK FOR 18 WK BEGINNING 10 D POST CARCINOGEN DOSE (STUDY DURATION: 20 WK), Strain/Sex: CD-1/FEMALE, Dose [Carcinogen]: 200 NMOL ONCE, Promoter: 12-O-TETRADECANOYLPHORBOL-13-ACETATE, 16561-29-8)	tumour outcome (control, treated, inhibition, significance) (Carcinogen: 7,12-DIMETHYLBENZ[A]ANTHRACENE, 57-97-6, Dose [Inhibitor]: 0, 10 UMOL 2/WK FOR 21 WK BEGINNING 10 D POST CARCINOGEN DOSE (STUDY DURATION: 23 WK), Strain/Sex: CD-1/FEMALE, Dose [Carcinogen]: 200 NMOL ONCE, Promoter: 12-O-TETRADECANOYLPHORBOL-13-ACETATE, 16561-29-8)	tumour outcome (control, treated, inhibition, significance) (Carcinogen: 7,12-DIMETHYLBENZ[A]ANTHRACENE, 57-97-6, Dose [Inhibitor]: 0, 15 UMOL 2/WK FOR 18 WK BEGINNING 10 D POST CARCINOGEN DOSE (STUDY DURATION: 20 WK), Strain/Sex: CD-1/FEMALE, Dose [Carcinogen]: 200 NMOL ONCE, Promoter: 12-O-TETRADECANOYLPHORBOL-13-ACETATE, 16561-29-8)
CC(C)c1cc(C(=O)O)c([O-])c(C(C)C)c1.CC(C)c1cc(C(=O)O)c([O-])c(C(C)C)c1.[Cu+2]	100%, 100%, 0%, not significant	100%, 100%, 0%, not significant	100%, 100%, 0%, not significant	97%, 93%, 4%, not calculated	97%, 93%, 4%, not calculated	97%, 100%, -3%, not calculated	97%, 90%, 7%, not calculated	97%, 96%, 0.3%, not calculated				
O=C(/C=C/c1ccc(O)cc1)c1ccc(O)cc1O									85%, 90%, -6%, not significant	85%, 50%, 41%, p<0.05	90%, 0%, 100%, p<0.05	85%, 5%, 95%, p<0.05
